{"source": "BindingDB's records for doi:10.1021/jm00123a012", "about": "(Dainippon Pharmaceutical, 1989)", "molecular_target": "Polyunsaturated fatty acid 5-lipoxygenase (Cavia porcellus)", "experiment": "Inhibitory activity against 5-lipoxygenase in guinea pig leukocyte"}
{"smiles": "Cc1ccc(/C=C/C(=O)NCCCCN2CCN(C(c3ccccc3)c3ccccc3)CC2)cn1", "note": "[N-[4-(4-Benzhydryl-piperazin-1-yl)-butyl]-3-(6-methyl-pyridin-3-yl)-acrylamide]", "values": [{"measurement": "IC50", "value": 4.86, "unit": "µM"}]}
